Reference: US20200129412A1, “SILICONE PAD HAVING ACTIVE INGREDIENTS FOR SKIN CARE AND AGAINST SKIN AGING” (Apricot GmbH, priority 2017, published 2020)

System: skin of a subject
Assay: Drug absorption study: diffusion of stained hyaluron from silicone pad into the skin
Type: in vivo
Settings: 6 mg powdered hyaluron stained green in adhesive layer; 2 weeks of daily use on skin
Method: FIG. 3A depicts a silicone pad with an adhesive layer. The adhesive layer comprises 6 mg of powdered hyaluron (<20 T Dalton). […] For manufacturing a silicone pad, the adhesive layer was bonded to a silicone body. The silicone pad was applied daily to the skin of a subject for a period of 2 weeks.

## hyaluron
  concentration of hyaluron in the silicone pad after use (decrease of color): decreases markedly
  distribution of hyaluron from the pad: delivered to the skin's lower layers
